Laboratory results published in PubChem BioAssay AID1918939 (Molecular Pharmacology Branch, DTP, NCI, 2023).
“And” between values parts separate entries of the source, which are not always exact repeats. Equal entries are not always repeated.

Tested on: 653999-131-R-J2-PDC complex spheroid viability
Experiment: Anticancer human tumor 653999-131-R-J2-PDC patient-derived lung adenocarcinoma cell line growth inhibition
Settings: for viability, T/C: stronger effect = lower value
Procedure, shortened: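 Drug combinations with the LSD1 inhibitor iadademstat tested on tumor cells co-cultured as spheroids with endothelial cells and mesenchymal stem cells. Concentrations descended in half-log increments from clinical Cmax or 10 microM.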
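Further: spheroids exposed to agents for seven days before readout.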

Cn1ncnc1C1c2n[nH]c(=O)c3cc(F)cc(c23)NC1c1ccc(F)cc1 (centres undefined) + NC1CC1c1ccc(-c2cccc(O)c2)cc1
IC50 (curve of first compound, second compound 0.1 µM): > 100 nM
IC50 (curve of first compound, second compound 0.316 µM): > 100 nM
IC50 (curve of first compound, second compound 1 µM): > 100 nM
IC50 (curve of first compound, second compound 3.16 µM): > 100 nM
IC50 (curve of first compound, second compound 10 µM): > 100 nM
viability, T/C (second compound 0.1 µM, first compound 0.000316 µM): 90.3%
viability, T/C (second compound 0.1 µM, first compound 0.001 µM): 95.9%
viability, T/C (second compound 0.1 µM, first compound 0.00316 µM): 95%
viability, T/C (second compound 0.1 µM, first compound 0.01 µM): 90.7%
viability, T/C (second compound 0.1 µM, first compound 0.0316 µM): 84.6%
viability, T/C (second compound 0.1 µM, first compound 0.1 µM): 83.4%
viability, T/C (second compound 0.316 µM, first compound 0.000316 µM): 92.2%
viability, T/C (second compound 0.316 µM, first compound 0.001 µM): 96.2%
viability, T/C (second compound 0.316 µM, first compound 0.00316 µM): 101%
viability, T/C (second compound 0.316 µM, first compound 0.01 µM): 91.4%
viability, T/C (second compound 0.316 µM, first compound 0.0316 µM): 82.2%
viability, T/C (second compound 0.316 µM, first compound 0.1 µM): 80%
viability, T/C (second compound 1 µM, first compound 0.000316 µM): 90%
viability, T/C (second compound 1 µM, first compound 0.001 µM): 97.4%
viability, T/C (second compound 1 µM, first compound 0.00316 µM): 99.8%
viability, T/C (second compound 1 µM, first compound 0.01 µM): 90.6%
viability, T/C (second compound 1 µM, first compound 0.0316 µM): 75.9%
viability, T/C (second compound 1 µM, first compound 0.1 µM): 82.6%
viability, T/C (second compound 3.16 µM, first compound 0.000316 µM): 89.7%
viability, T/C (second compound 3.16 µM, first compound 0.001 µM): 94.4%
viability, T/C (second compound 3.16 µM, first compound 0.00316 µM): 90.3%
viability, T/C (second compound 3.16 µM, first compound 0.01 µM): 85.1%
viability, T/C (second compound 3.16 µM, first compound 0.0316 µM): 82.7%
viability, T/C (second compound 3.16 µM, first compound 0.1 µM): 80%
viability, T/C (second compound 10 µM, first compound 0.000316 µM): 85.5%
viability, T/C (second compound 10 µM, first compound 0.001 µM): 88.3%
viability, T/C (second compound 10 µM, first compound 0.00316 µM): 94.8%
viability, T/C (second compound 10 µM, first compound 0.01 µM): 86.3%
viability, T/C (second compound 10 µM, first compound 0.0316 µM): 82.5%
viability, T/C (second compound 10 µM, first compound 0.1 µM): 78.6%

Nc1ncn(C2CC(O)C(CO)O2)c(=O)n1 (centres undefined)
viability, T/C (compound 0.00316 µM): 89% and 109%
viability, T/C (compound 0.01 µM): 105% and 103%
viability, T/C (compound 0.0316 µM): 83.9% and 95.3%
viability, T/C (compound 0.1 µM): 78.7% and 96.2%
viability, T/C (compound 0.316 µM): 80.5% and 91.1%
viability, T/C (compound 1 µM): 79.3% and 85.2%
IC50 (curve of compound): > 1000 nM

COc1cc(C2c3cc4c(cc3C(OC3OC5COC(C)OC5C(O)C3O)C3COC(=O)C23)OCO4)cc(OC)c1O (centres undefined)
viability, T/C (compound 0.00949 µM): 80.5% and 89.5%
viability, T/C (compound 0.03 µM): 76.5% and 74.9%
viability, T/C (compound 0.0949 µM): 64.3% and 57.3%
viability, T/C (compound 0.3 µM): 42.8% and 45.1%
viability, T/C (compound 0.949 µM): 37.4% and 36.7%
viability, T/C (compound 3 µM): 25.3% and 27.8%
IC50 (curve of compound): 230 nM and 199 nM
